How the values were obtained:
[1] = test system: MCP-1 secretion in THP-1 cells; experiment: MCP-1 secretion in LPS-stimulated THP-1 monocyte-derived macrophages (ELISA); format: cell-based; conditions: FIG. 2; for secretion of inflammatory factor MCP-1 in THP-1 mononuclear macrophages: 25 μM, 10 μM and 5 μM, 18 h incubation, 100 ng/ml LPS 6 h; for MCP-1 reducing activity compared with BMS309403 and RO6806051: THP-1 macrophages, LPS
Description: (§1) In FIG. 2A to FIG. 2C, the vertical axis represents the amount (ng) of MCP-1 contained in each mg of cell protein: in FIG. 2D, the vertical axis represents the relative concentration of MCP-1 (ng/mg cellular protein % LPS). Wherein, Control represents blank control treatment, LPS represents lipopolysaccharide treatment, BMS309403 represents inhibitor positive control treatment, RO6806051 (RO) represents lead compound treatment, and Y2, Y3, Y15, Y16 and Y18 represent treatments with compounds Y2, Y3, Y15, Y16 and Y18 prepared in the present invention, respectively.
(§2) Effects of the compounds on monocyte chemoattractant factor-1 (MCP-1) and interleukin-6 (IL-6) in THP-1 monocyte-derived macrophage.
(§3) First, monocytic cell line THP-1 in logarithmic growth phase was plated on a 96-well plate at a cell density of 5*10^5/ml; then 100 nM phorbol myristate ester (PMA) was added to induce the cells for 24 hours to differentiate into macrophages; then the cells were washed once or twice with phosphate buffered saline (PBS), and different concentrations of compounds (5, 10, 25 μM) were added for incubation for 18 hours; finally, after 6 hours of stimulation with 100 ng/ml lipopolysaccharide (LPS), the supernatant was collected and diluted to a certain multiple and the contents of MCP-1 and IL-6 were detected using enzyme-linked immunosorbent assay (ELISA), and cell protein was collected and the protein concentration was measured by BCA method for calibration.

[2] = test system: IL-6 secretion in THP-1 cells; experiment: IL-6 secretion in LPS-stimulated THP-1 monocyte-derived macrophages (ELISA); format: cell-based; conditions: FIG. 3
Description: as §1, with “3,” for “2A to FIG. 2C,”, “protein.” for “protein: in FIG. 2D, the vertical axis represents the relative concentration of MCP-1 (ng/mg cellular protein % LPS).”, “Control (Con)” for “Control”
as §2, §3

Human FABP4 = molecular target: T1, Human FABP4 (Homo sapiens, UniProt P15090); experiment: FABP4 inhibition rate, ANS substrate competition (fluorescence) method; format: binding; conditions: compound 25 μM; 10 μM 1,8-ANS, 10 μM FABP4
T1 construct: His tag; made in house; host or cells: E. coli BL21 (DE3)
T1 sequence (P15090 whole entry): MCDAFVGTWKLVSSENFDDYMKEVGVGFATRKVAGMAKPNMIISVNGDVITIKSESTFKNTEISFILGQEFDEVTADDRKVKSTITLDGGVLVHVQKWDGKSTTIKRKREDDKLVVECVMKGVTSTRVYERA
Description: (§4) Considering that inhibition of FABP3 would cause myocardial function damage and bring potential safety issues, we tested the inhibitory activity of some compounds on FABP3. The activity test is illustrated by the example of the FABP4 activity test system as below.
(§5) Experimental principle and method: Once the free non-covalent fluorescent probe ANS binds to FABP4, the ANS fluorescence intensity will increase and its spectrum will be blue shifted. In this experiment, the inhibitory effect of the compound on FABP4 was evaluated by measuring the change in the ANS fluorescence signal value. For the FABP4 inhibitory activity test, the ANS substrate competition method was used, and we used the method of Kane and Bernlohr (E. Marr, M. Tardie, M. Carty, T. Brown Phillips, I. K. Wang, W. Soeller, X. Qiu, G. Karam, Expression, purification, crystallization and structure of human adipocyte lipid-binding protein (aP2). Acta Crystallogr., Sect. F: Struct. Biol. Cryst. Commun. 62 (2006) 1058-1060.). Human FABP4 with a His tag was expressed in the BL21 (DE3) strain and then purified using a Ni column with a His tag to generate the protein. In the detection system, the concentration of 1,8-ANS substrate was 10 μM, the final concentration of FABP4 was 10 μM, and then the compound prepared by the present invention was added at the required concentration for incubation for 3 minutes, and finally the fluorescence signal was detected at an excitation wavelength (EX) of 370 nm/emission wavelength (EM) of 470 nm. The inhibition rate (%) of the test sample on FABP4 was calculated according to the fluorescence absorption value of the system. The inhibition rate (%) was calculated according to the following equation: […]
(§6) FX represents the fluorescence value (fluorescence, F) of the system measured in the presence of compound x;
(§7) Fbackground represents the fluorescence value of the fluorescent substrate ANS;
(§8) F0% represents the fluorescence value of the system when the inhibition rate is 0%, that is, when no compound was added.

FABP5 = FABP5 (Homo sapiens, UniProt Q01469); experiment: FABP5 inhibition rate, ANS substrate competition method (illustrated by the FABP4 system); format: binding; conditions: compound 25 μM
Chain of FABP5 (Q01469 whole entry): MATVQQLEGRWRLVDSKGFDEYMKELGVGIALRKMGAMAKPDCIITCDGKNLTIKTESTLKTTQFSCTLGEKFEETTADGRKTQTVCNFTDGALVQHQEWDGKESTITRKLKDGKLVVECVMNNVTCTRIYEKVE

3T3-L1 cells = experiment: Lipolysis inhibition in differentiated mature 3T3-L1 adipocytes (supernatant glycerol, forskolin stimulation); format: cell-based; conditions: 80 μM compound, 24 h incubation, 20 μM forskolin 2 h; FIG. 1
Experimental: In this example, the lipolysis inhibitory activity of the compounds prepared in the present invention on differentiated mature 3T3-L1 preadipocytes was measured.
5 In adipocytes, FABP4 plays the role of a fatty acid chaperone, and gene knockout or drug inhibition of FABP4 can be used to inhibit lipolysis and promote lipid production in adipocytes. Therefore, the lipolysis experiment can be used as a confirmation indicator of the FABP4 inhibitory activity of the compound. In this experiment, the lipolysis activity of the compounds was evaluated by measuring the effect of the compounds prepared in the present 10 invention on the glycerol content of the supernatant of mature adipocytes.
Experimental materials: 3T3-L1 preadipocytes; calf serum, fetal bovine serum, high glucose H-DMEM culture medium, 3-isobutyl-1-methylxanthine (IBMX), dexamethasone, insulin, Forskolin, glycerol determination kit, BCA protein concentration determination kit.
1. 3T3-L1 preadipocytes were inoculated on culture plates and cultured in high-glucose DMEM containing 10% calf serum in a 37° C., 5% CO2 incubator;
2. After the cells were fully grown, contact inhibition was performed for two days;
3. […]
6. The cell supernatant was collected to measure the glycerol content, the intracellular protein concentration was measured by BCA method for calibration, and finally Graphpad Prism was used to analyze the results.

FABP3 = FABP3 (Homo sapiens, UniProt P05413); experiment: FABP3 inhibition rate, ANS substrate competition method (illustrated by the FABP4 system); format: binding; conditions: compound 25 μM
Chain of FABP3 (P05413 whole entry): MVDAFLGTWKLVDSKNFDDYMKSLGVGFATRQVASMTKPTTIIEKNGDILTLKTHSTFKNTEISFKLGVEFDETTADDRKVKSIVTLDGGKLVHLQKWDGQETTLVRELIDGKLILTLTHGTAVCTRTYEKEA
Description: as §4, §5, §6, §7, §8

prostate cancer cells = conditions: background statement; cited from earlier work

inhibition at 25 µM (Human FABP4)	inhibition at 25 µM (FABP5)	inhibition at 25 µM (FABP3)	SMILES	secretion of inflammatory factor MCP-1 in THP-1 mononuclear macrophages [1]	MCP-1 reducing activity compared with BMS309403 and RO6806051 [1]	IL-6 secretion, tendency (no concentration stated) [2]	glycerol content of the supernatant under FSK (forskolin) stimulation (3T3-L1 cells)	effect on prostate cancer cell proliferation, metastasis and apoptosis (prostate cancer cells)
93%	73%	48%	O=C(O)c1c(-c2ccccc2)c2cc(Cl)ccc2c(=O)n1CC1CCCCC1 [Compound Y2, 6-Chloro-2-(cyclohexylmethyl)-1-oxo-4-phenyl-1,2-dihydroisoquinoline-3-carboxylic Acid]	could reduce the secretion of inflammatory factor MCP-1	better than those of the positive control FABP4 inhibitor BMS309403 and the lead compound RO6806051	tendency to reduce IL-6 secretion but with no statistical difference	significantly reduce the glycerol content	–
93%	68%	36%	O=C(O)c1c(-c2ccccc2)c2cc(Cl)ccc2c(=O)n1C1CCCC1 [Compound Y3, 6-Chloro-2-cyclopentyl-1-oxo-4-phenyl-1,2-dihydroisoquinoline-3-carboxylic Acid]	could reduce the secretion of inflammatory factor MCP-1	better than those of the positive control FABP4 inhibitor BMS309403 and the lead compound RO6806051	tendency to reduce IL-6 secretion but with no statistical difference	significantly reduce the glycerol content	–
–	–	–	CCc1c(-c2ccccc2)c(-c2ccccc2)nn1-c1ccccc1-c1cccc(OCC(=O)O)c1 [BMS309403]	–	–	–	–	inhibit cell proliferation and metastasis and promote cell apoptosis

From US20250170121A1, “ISOQUINOLINONE COMPOUND, AND PREPARATION METHOD AND USE THEREFOR” (FUDAN UNIVERSITY, priority 2022, published 2025)
